In US10745382B2 (BRISTOL-MYERS SQUIBB COMPANY, priority 2015, dated 2020):

Each compound was assayed against T1, PD-1/PD-L1 (Homo sapiens, UniProt Q9NZQ7) (assay: PD-1/PD-L1 Homogenous Time-Resolved Fluorescence (HTRF) binding assay). Conditions: PD-L1-His 10 nM, PD-1-Ig 20 nM; value given as range class; read-out: Range or IC50.
T1 construct: made in house; host or cells: HEK293T
In short: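 Binding measured in dPBS with 0.1% BSA and 0.05% Tween-20, detected by HTRF with europium cryptate anti-Ig (1 nM final) and APC anti-His (20 nM final) added over the binding reaction. Counter-assays used human PD-1-Ig/PD-L2-His (20 and 5 nM) and CD80-His/PD-L1-Ig (100 and 10 nM).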

T1 sequence (Q9NZQ7 with tags, fused parts or gaps): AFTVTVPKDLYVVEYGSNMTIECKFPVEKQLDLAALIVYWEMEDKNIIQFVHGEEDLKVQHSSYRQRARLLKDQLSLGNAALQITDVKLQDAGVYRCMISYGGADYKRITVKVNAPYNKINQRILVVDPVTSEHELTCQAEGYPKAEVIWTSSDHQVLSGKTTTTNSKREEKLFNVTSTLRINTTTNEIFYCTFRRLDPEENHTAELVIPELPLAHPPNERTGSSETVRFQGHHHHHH

IC50, 0.21 to 10 nM:
Cc1c(COc2cc(OCc3cncc(C(N)=O)c3)c(CN[C@](C)(CO)C(=O)O)cc2Cl)cccc1-c1cccc(OCCCN2CCC(O)(C(=O)O)C2)c1C (stereo partly drawn) [Example 1057, 1-(3-((3′-((5-((5-carbamoylpyridin-3-yl)methoxy)-4-((((R)-2-carboxy-1-hydroxypropan-2-yl)amino)methyl)-2-chlorophenoxy)methyl)-2,2′-dimethyl-[1,1′-biphenyl]-3-yl)oxy)propyl)-3-hydroxypyrrolidine-3-carboxylic Acid]
Cc1c(COc2cc(OCc3cncc(C#N)c3)c(CN[C@](C)(CO)C(=O)O)cc2Cl)cccc1-c1cccc(OCCCN2CCC(O)CC2)c1C [Example 1059, (R)-2-((5-chloro-2-((5-cyanopyridin-3-yl)methoxy)-4-((3′-(3-(4-hydroxypiperidin-1-yl)propoxy)-2,2′-dimethyl-[1,1′-biphenyl]-3-yl)methoxy)benzyl)amino)-3-hydroxy-2-methylpropanoic Acid]
Cc1c(COc2cc(OCc3cncc(C#N)c3)c(CN[C@H](CO)C(=O)O)cc2Cl)cccc1-c1cccc(OCCCN2CCC(O)CC2)c1C [Example 1060, (R)-2-((5-chloro-2-((5-cyanopyridin-3-yl)methoxy)-4-((3′-(3-(4-hydroxypiperidin-1-yl)propoxy)-2,2′-dimethyl-[1,1′-biphenyl]-3-yl)methoxy)benzyl)amino)-3-hydroxypropanoic Acid]
Cc1c(COc2cc(OCc3cncc(C#N)c3)c(CN3CCCC[C@H]3C(=O)O)cc2Cl)cccc1-c1cccc(OCCCN2CCC(O)(C(=O)O)CC2)c1C [Example 1061, (S)-1-(4-((3′-(3-(4-carboxy-4-hydroxypiperidin-1-yl)propoxy)-2,2′-dimethyl-[1,1′-biphenyl]-3-yl)methoxy)-5-chloro-2-((5-cyanopyridin-3-yl)methoxy)benzyl)piperidine-2-carboxylic Acid]
COC(=O)[C@@H]1C[C@@H](O)CN1CCCOc1cccc(-c2cccc(COc3cc(OCc4cncc(S(C)(=O)=O)c4)c(CN[C@](C)(CO)C(=O)O)cc3Cl)c2C)c1Cl [Example 1068, (R)-2-((5-chloro-4-((2′-chloro-3′-(3-((2S,4R)-4-hydroxy-2-(methoxycarbonyl)pyrrolidin-1-yl)propoxy)-2-methyl-[1,1′-biphenyl]-3-yl)methoxy)-2-((5-(methylsulfonyl)pyridin-3-yl)methoxy)benzyl)amino)-3-hydroxy-2-methylpropanoic Acid]
COC(=O)[C@@H]1C[C@@H](O)CN1CCCOc1cccc(-c2cccc(COc3cc(OCc4cncc(S(C)(=O)=O)c4)c(CN4CCCC[C@H]4C(=O)O)cc3Cl)c2C)c1Cl [Example 1069, (S)-1-(5-chloro-4-((2′-chloro-3′-(3-((2S,4R)-4-hydroxy-2-(methoxycarbonyl)pyrrolidin-1-yl)propoxy)-2-methyl-[1,1′-biphenyl]-3-yl)methoxy)-2-((5-(methylsulfonyl)pyridin-3-yl)methoxy)benzyl)piperidine-2-carboxylic Acid]
Cc1cc(OCCCN2CC[C@@H](O)C2)ccc1-c1cccc(COc2cc(OCc3cncc(C#N)c3)c(CN[C@H](CO)C(=O)O)cc2Cl)c1C [Example 1070, (R)-2-((5-chloro-2-((5-cyanopyridin-3-yl)methoxy)-4-((4′-(3-((R)-3-hydroxypyrrolidin-1-yl)propoxy)-2,2′-dimethyl-[1,1′-biphenyl]-3-yl)methoxy)benzyl)amino)-3-hydroxypropanoic Acid]
Cc1cc(OCCCN2CC[C@@H](O)C2)ccc1-c1cccc(COc2cc(OCc3cncc(C#N)c3)c(CN3CCCC[C@H]3C(=O)O)cc2Cl)c1C [Example 1071, (S)-1-(5-chloro-2-((5-cyanopyridin-3-yl)methoxy)-4-((4′-(3-((R)-3-hydroxypyrrolidin-1-yl)propoxy)-2,2′-dimethyl-[1,1′-biphenyl]-3-yl)methoxy)benzyl)piperidine-2-carboxylic Acid]
COC(=O)C1CN(CCCOc2cccc(-c3cccc(COc4cc(OCc5cncc(S(C)(=O)=O)c5)c(CN5CCCC[C@H]5C(=O)O)cc4Cl)c3C)c2C)CC1O (stereo partly drawn) [Example 1072, (2S)-1-(5-chloro-4-((3′-(3-(3-hydroxy-4-(methoxycarbonyl)pyrrolidin-1-yl)propoxy)-2,2′-dimethyl-[1,1′-biphenyl]-3-yl)methoxy)-2-((5-(methylsulfonyl)pyridin-3-yl)methoxy)benzyl)piperidine-2-carboxylic Acid]
COC(=O)C1CN(CCCOc2cccc(-c3cccc(COc4cc(OCc5cncc(S(C)(=O)=O)c5)c(CN[C@](C)(CO)C(=O)O)cc4Cl)c3C)c2C)CC1O (stereo partly drawn) [Example 1073, (2R)-2-((5-chloro-4-((3′-(3-(3-hydroxy-4-(methoxycarbonyl)pyrrolidin-1-yl)propoxy)-2,2′-dimethyl-[1,1′-biphenyl]-3-yl)methoxy)-2-((5-(methylsulfonyl)pyridin-3-yl)methoxy)benzyl)amino)-3-hydroxy-2-methylpropanoic Acid]
Cc1c(COc2cc(OCc3cncc(S(C)(=O)=O)c3)c(CN3CCCC[C@H]3C(=O)O)cc2Cl)cccc1-c1cccc(OCCCN2CC(O)C(C(=O)O)C2)c1C (stereo partly drawn) [Example 1074, (2S)-1-(4-((3′-(3-(3-carboxy-4-hydroxypyrrolidin-1-yl)propoxy)-2,2′-dimethyl-[1,1′-biphenyl]-3-yl)methoxy)-5-chloro-2-((5-(methylsulfonyl)pyridin-3-yl)methoxy)benzyl)piperidine-2-carboxylic Acid]
Cc1c(COc2cc(OCc3cncc(S(C)(=O)=O)c3)c(CN[C@](C)(CO)C(=O)O)cc2Cl)cccc1-c1cccc(OCCCN2CC(O)C(C(=O)O)C2)c1C (stereo partly drawn) [Example 1075, 1-(3-((3′-((4-((((R)-2-carboxy-1-hydroxypropan-2-yl)amino)methyl)-2-chloro-5-((5-(methylsulfonyl)pyridin-3-yl)methoxy)phenoxy)methyl)-2,2′-dimethyl-[1,1′-biphenyl]-3-yl)oxy)propyl)-4-hydroxypyrrolidine-3-carboxylic Acid]
CNC(=O)C1CCN(CCCOc2cccc(-c3cccc(COc4cc(OCc5cncc(C#N)c5)c(CN[C@](C)(CO)C(=O)O)cc4Cl)c3C)c2Cl)CC1 [Example 1076, (R)-2-((5-chloro-4-((2′-chloro-2-methyl-3′-(3-(4-(methylcarbamoyl)piperidin-1-yl)propoxy)-[1,1′-biphenyl]-3-yl)methoxy)-2-((5-cyanopyridin-3-yl)methoxy)benzyl)amino)-3-hydroxy-2-methylpropanoic Acid]
CNC(=O)C1CCN(CCCOc2cccc(-c3cccc(COc4cc(OCc5cncc(C#N)c5)c(CN5CCCC[C@H]5C(=O)O)cc4Cl)c3C)c2Cl)CC1 [Example 1077, (S)-1-(5-chloro-4-((2′-chloro-2-methyl-3′-(3-(4-(methylcarbamoyl)piperidin-1-yl)propoxy)-[1,1′-biphenyl]-3-yl)methoxy)-2-((5-cyanopyridin-3-yl)methoxy)benzyl)piperidine-2-carboxylic Acid]
CC(=O)NC1CCN(CCCOc2cccc(-c3cccc(COc4cc(OCc5cncc(C#N)c5)c(CN5CCCC[C@H]5C(=O)O)cc4Cl)c3C)c2Cl)CC1 [Example 1078, (S)-1-(4-((3′-(3-(4-acetamidopiperidin-1-yl)propoxy)-2′-chloro-2-methyl-[1,1′-biphenyl]-3-yl)methoxy)-5-chloro-2-((5-cyanopyridin-3-yl)methoxy)benzyl)piperidine-2-carboxylic Acid]
CC(=O)NC1CCN(CCCOc2cccc(-c3cccc(COc4cc(OCc5cncc(C#N)c5)c(CN[C@](C)(CO)C(=O)O)cc4Cl)c3C)c2Cl)CC1 [Example 1079, (R)-2-((4-((3′-(3-(4-acetamidopiperidin-1-yl)propoxy)-2′-chloro-2-methyl-[1,1′-biphenyl]-3-yl)methoxy)-5-chloro-2-((5-cyanopyridin-3-yl)methoxy)benzyl)amino)-3-hydroxy-2-methylpropanoic Acid]
Cc1c(COc2cc(OCc3cncc(C#N)c3)c(CN[C@H](CO)C(=O)O)cc2Cl)cccc1-c1cccc(OCCCN2CC(O)C2)c1C [Example 1080, (R)-2-((5-chloro-2-((5-cyanopyridin-3-yl)methoxy)-4-((3′-(3-(3-hydroxyazetidin-1-yl)propoxy)-2,2′-dimethyl-[1,1′-biphenyl]-3-yl)methoxy)benzyl)amino)-3-hydroxypropanoic Acid]
Cc1c(COc2cc(OCc3cncc(S(C)(=O)=O)c3)c(CN3CCCC[C@H]3C(=O)O)cc2Cl)cccc1-c1cccc(OCCCN2C[C@H](O)C[C@H]2C(=O)O)c1Cl [Example 1081, (S)-1-(4-((3′-(3-((2S,4R)-2-carboxy-4-hydroxypyrrolidin-1-yl)propoxy)-2′-chloro-2-methyl-[1,1′-biphenyl]-3-yl)methoxy)-5-chloro-2-((5-(methylsulfonyl)pyridin-3-yl)methoxy)benzyl)piperidine-2-carboxylic Acid]
COC(=O)[C@@H]1CCN(CCCOc2cccc(-c3cccc(COc4cc(OCc5cncc(S(C)(=O)=O)c5)c(CN[C@](C)(CO)C(=O)O)cc4Cl)c3C)c2C)C1 [Example 1082, (R)-2-((5-chloro-4-((3′-(3-((R)-3-(methoxycarbonyl)pyrrolidin-1-yl)propoxy)-2,2′-dimethyl-[1,1′-biphenyl]-3-yl)methoxy)-2-((5-(methylsulfonyl)pyridin-3-yl)methoxy)benzyl)amino)-3-hydroxy-2-methylpropanoic Acid]
